Laboratory results taken from patent US7501538B2, “Aryl and heteroaryl compounds, compositions and methods of use” (TransTech Pharma, Inc., priority 2003, dated 2009).
pKd: −log10 of the molar value. Where two headings read alike, the source gives them in different places.

How the values were obtained:
UT-7 cells (UT7/EPO) = test: Cell Proliferation Assay (AlamarBlue), UT-7; type: cell-based; details: UT-7 assay, at or below 1000 micromolar compound concentration
Protocol: UT-7 and FDC-P1 cell proliferation was assessed by AlamarBlue (BioSource International Inc., Camarillo, Calif. 93012, USA). Briefly, the cells were plated into 96-well Costar cell culture plate (Corning Incorporated, Corning, N.Y. 14831, USA) at 7000 cells/well and 4000 cells/well for UT7/EPO and FDC-P1 cell line, respectively. The test compound and/or vehicle was added to each well with a final concentration of 1% DMSO and incubated in an atmosphere of 5% CO2 at 37° C. for 66 hours. After a further 6 hour incubation in the presence of AlamarBlue, fluorescent intensity was measured using a SpectraMax Gemini (Molecular Devices, Sunnyvale, Calif. 94089, USA) plate reader, with excitation at 530 nm and emission at 590 nm. The Percent Increase=((RFU Test-RFU Medium)/(RFU Vehicle-RFU Medium)-1)*100. Recombinant human EPO (Research Diagnostics, Inc., Flanders, N.J. 07836, USA) was used in the assay as a positive control.

receptors for EPO = details: cited from earlier work

Compound	cell proliferation (Percent Increase) (UT-7 cells (UT7/EPO)) [%]	pKd (receptors for EPO; high affinity receptor, read-out: Kd, high affinity receptors for EPO)	pKd (receptors for EPO; low affinity receptor, read-out: Kd, low affinity receptors for EPO)
CC(C)(C)c1ccc(COc2ccc(C[C@H](NC(=O)c3cc(Cl)ccc3NCc3cccc4ccccc34)C(=O)O)cc2)cc1 [Example 4, (2S)-3-[4-(4-tert-butyl-benzyloxy)-phenyl]-2-{5-chloro-2-[(naphthalen-1-ylmethyl)-amino]-benzoylamino}-propionic acid]	< 20	–	–
EPO: 165 amino acid, 34 kilodalton (kDa) glycoprotein hormone regulating red blood cell production	–	10.00 to 10.12	9.10 to 9.66
